Source: patent US20050136015A1, “Topical use of halosalicylic acid derivatives” (priority 2003, published 2005)

Assays:
skin surface = assay: Exfoliation (desquamation) activity, D-SQUAME skin surface sampling discs; type: in vivo; settings: for D-SQUAME Score: scoring scale 0 to 5
Text: D-SQUAME skin surface sampling Discs (CuDerm Corporation) were employed. The disc was applied to a clean, dry skin surface and pressed firmly for a few seconds using the thumb or fingertips. The disc was then transferred to a black square on the storage card. The disc was viewed at an angle with strong light and compared with 5 reference patterns provided by CuDerm Corporation. Very dry skin produces a heavy amount of scaling similar to pattern 5. Normal skin produces a few areas of small clumps of cells or a fine even single layer of cells. The scoring scale employed was as follows: [table] […] The vehicle was tested, as a control. The vehicle (ANEW All-In-One SPF-15 Self-Adjusting Perfecting Creme base without the glycolic acid) employed was the same in all cases, only the test compound(s) differed.

Propionibacterium acnes = assay: Zone of Inhibition Test; type: cell-based; settings: for Diameter of Zone of Inhibition: P. acnes, 1000 μl, isopropyl palmitate solvent
Pseudomonas aeruginosa = assay: Zone of Inhibition Test; type: cell-based; settings: P. aeruginosa, 1000 μl, isopropyl palmitate solvent
Candida albicans = assay: Zone of Inhibition Test; type: cell-based; settings: C. albicans, 1000 μl, isopropyl palmitate solvent
[1] = test system: Staphylococcus epidermidis; assay: Zone of Inhibition Test; type: cell-based; settings: S. epidermidis, 1000 μl, isopropyl palmitate solvent
Escherichia coli = assay: Zone of Inhibition Test; type: cell-based; settings: E. coli, 1000 μl, isopropyl palmitate solvent
Aspergillus niger = assay: Zone of Inhibition Test; type: cell-based; settings: A. niger, 1000 μl, isopropyl palmitate solvent
[2] = Skin irritation (PII) of test formulation; type: in vivo
Staphylococcus aureus = assay: Zone of Inhibition Test; type: cell-based; settings: S. aureus, 1000 μl, isopropyl palmitate solvent
Salmonella typhimarium = settings: literature report; cited from earlier work
[3] = test system: all of the test microorganisms; assay: MLC test, summary over all test microorganisms; type: cell-based; settings: against all of the test microorganisms of Table 1
[4] = 0.5% active in ANEW creme base vehicle
[5] = 0.5% active in ANEW creme base vehicle without glycolic acid

O=C(O)c1cc(Cl)ccc1O [5-Chlorosalicylic Acid, 5-chlorosalicylic acid]
D-SQUAME Score (skin surface; [4]): 2.44 | Exfoliation activity compared with 0.5% salicylic acid (skin surface; D-SQUAME, Table 5): significantly more exfoliating | Exfoliation activity compared with 1.0% salicylic acid (skin surface; D-SQUAME, Table 5): equivalent in exfoliation activity | Exfoliation activity compared with 2.0% salicylic acid (skin surface; D-SQUAME, Table 5): equivalent in exfoliation activity | Exfoliation activity compared with the base vehicle (containing no CLSA or SA) (skin surface; D-SQUAME, Table 5): significantly more exfoliating | Exfoliation activity compared with the combination of 0.5% chlorosalicylic acid/0.5% salicylic acid (skin surface; D-SQUAME, Table 5): equivalent in exfoliation activity | Diameter of Zone of Inhibition (Propionibacterium acnes; 0.5%): 4.87 Millimeters | Diameter of Zone of Inhibition (Propionibacterium acnes; 1.0%): 17.62 Millimeters | Activity against Propionibacterium acnes compared with salicylic acid (Propionibacterium acnes; results of Tables 2 through 4): more active | Diameter of Zone of Inhibition (Pseudomonas aeruginosa; 0.5%): 0 Millimeters | Diameter of Zone of Inhibition (Pseudomonas aeruginosa; 1.0%): 0 Millimeters | Diameter of Zone of Inhibition (Candida albicans; 0.5%): 0 Millimeters | Diameter of Zone of Inhibition (Candida albicans; 1.0%): 2.96 Millimeters | Diameter of Zone of Inhibition ([1]; 0.5%): 3.59 Millimeters | Diameter of Zone of Inhibition ([1]; 1.0%): 13.15 Millimeters | Diameter of Zone of Inhibition (Escherichia coli; 0.5%): 0 Millimeters | Diameter of Zone of Inhibition (Escherichia coli; 1.0%): 0 Millimeters | Diameter of Zone of Inhibition (Aspergillus niger; 0.5%): 0 Millimeters | Diameter of Zone of Inhibition (Aspergillus niger; 1.0%): 3.38 Millimeters | PII (skin irritation) [2, 5]: 0.00 | Diameter of Zone of Inhibition (Staphylococcus aureus; 0.5%): 0 Millimeters | Diameter of Zone of Inhibition (Staphylococcus aureus; 1.0%): 3.04 Millimeters | Mutagenic activity (Salmonella typhimarium): non-mutagenic

O=C(O)c1ccccc1O [Salicylic Acid, salicylic acid]
D-SQUAME Score (skin surface; [4]): 1.97 | D-SQUAME Score (skin surface; 1% active in ANEW creme base vehicle): 2.28 | D-SQUAME Score (skin surface; 2.% active in ANEW creme base vehicle): 2.56 | Diameter of Zone of Inhibition (Propionibacterium acnes; 0.83%): 0 Millimeters | Diameter of Zone of Inhibition (Propionibacterium acnes; 1.66%): 15.39 Millimeters | Diameter of Zone of Inhibition (Pseudomonas aeruginosa; 0.83%): 0 Millimeters | Diameter of Zone of Inhibition (Pseudomonas aeruginosa; 1.66%): 0 Millimeters | Diameter of Zone of Inhibition (Candida albicans; 0.83%): 4.6 Millimeters | Diameter of Zone of Inhibition (Candida albicans; 1.66%): 11.16 Millimeters | Diameter of Zone of Inhibition ([1]; 0.83%): 4.5 Millimeters | Diameter of Zone of Inhibition ([1]; 1.66%): 13.62 Millimeters | Diameter of Zone of Inhibition (Escherichia coli; 0.83%): 0 Millimeters | Diameter of Zone of Inhibition (Escherichia coli; 1.66%): 3.67 Millimeters | Diameter of Zone of Inhibition (Aspergillus niger; 0.83%): 0 Millimeters | Diameter of Zone of Inhibition (Aspergillus niger; 1.66%): 6.72 Millimeters | PII (skin irritation) [2, 5]: 0.00 | PII (skin irritation) ([2]; 1% active in ANEW creme base vehicle without glycolic acid): 0.00 | PII (skin irritation) ([2]; 2.% active in ANEW creme base vehicle without glycolic acid): 0.00 | Diameter of Zone of Inhibition (Staphylococcus aureus; 0.83%): 0 Millimeters | Diameter of Zone of Inhibition (Staphylococcus aureus; 1.66%): 6.38 Millimeters | Bacteriocidal activity (in words) [3]: bacteriocidal against all of the test microorganisms
